Test results: patent US20250332264A1, “GhR-BINDING PEPTIDE AND COMPOSITION COMPRISING SAME” (priority 2021, published 2025)
pKd: −log10 of the molar value. Starred links: 1 amine or outer side, 2 acyl side, 3 side chain; linkers in the order of their positions; H or OH if unused. Positions of bridges follow the written chain, without caps; N, C: chain ends. Non-standard residues stand in square brackets, D forms with d. Residues, ends and D or L forms follow the SMILES beside them. Groups on a side chain read outwards from the residue. *: point of attachment. X13 = NC(=O)[C@H](CCCCN*)NC(=O)COCCOCCNC(=O)COCCOCCNC(=O)CC[C@H](NC(=O)CC[C@H](NC(=O)CCCCCCCCCCCCC(=O)O)C(=O)O)C(=O)O; X3 = NC(=O)[C@H](CCCCN*)NC(=O)CC[C@H](NC(=O)CC[C@H](NC(=O)CCCCCCCCCCCCCCC(=O)O)C(=O)O)C(=O)O; X10 = NC(=O)[C@H](CCCCN*)NC(=O)CC[C@H](NC(=O)CC[C@H](NC(=O)CCCc1ccc(I)cc1)C(=O)O)C(=O)O; Trp(1-CH2CO) = O=C([C@H](Cc1cn(CC(=O)[*:3])c2ccccc12)N[*:1])[*:2]; Trp(5-OMe) = COc1ccc2[nH]cc(C[C@H](N)C(=O)O)c2c1; Butanoyl(4-(4-I-phenyl)) = O=C(CCCc1ccc(I)cc1)*; Trp(5-OH) = N[C@@H](Cc1c[nH]c2ccc(O)cc12)C(=O)O; Phe(4-COOH) = N[C@@H](Cc1ccc(C(=O)O)cc1)C(=O)O; Trp(7-aza) = N[C@@H](Cc1c[nH]c2ncccc12)C(=O)O; X7 = O=C(O)CN1CCC(N[*:1])(C(=O)[*:2])CC1; γGlu = O=C(O)[C@H](CCC(=O)[*:2])N[*:1]; NMeK = CN[C@@H](CCCCN)C(=O)O; Aib = CC(C)(N)C(=O)O

Biological target: T1, Recombinant human GhR-Fc protein (Homo sapiens, UniProt P10912)
T1 construct: purchased R&D Systems
T1 sequence (P10912 with tags, fused parts or gaps limits assumed): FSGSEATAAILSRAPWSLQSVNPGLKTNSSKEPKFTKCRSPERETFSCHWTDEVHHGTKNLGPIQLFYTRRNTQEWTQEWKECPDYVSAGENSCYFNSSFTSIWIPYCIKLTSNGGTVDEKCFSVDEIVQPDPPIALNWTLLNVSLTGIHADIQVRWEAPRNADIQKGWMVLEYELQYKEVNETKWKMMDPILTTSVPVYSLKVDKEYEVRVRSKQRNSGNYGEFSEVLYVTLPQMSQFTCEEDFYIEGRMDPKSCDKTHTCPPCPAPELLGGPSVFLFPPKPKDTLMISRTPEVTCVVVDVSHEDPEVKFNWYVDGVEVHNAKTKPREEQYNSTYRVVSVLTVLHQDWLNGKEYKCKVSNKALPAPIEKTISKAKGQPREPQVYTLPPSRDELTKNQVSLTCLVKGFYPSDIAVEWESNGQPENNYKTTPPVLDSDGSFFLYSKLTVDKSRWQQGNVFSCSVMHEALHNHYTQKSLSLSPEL
Test: Binding activity of hGhR binding peptide by surface plasmon resonance (SPR), Biacore T200, single-cycle kinetics
Conditions: human GhR-Fc immobilized on CM5 chip, KD calculated from ka and kd
Protocol: SPR assay was performed using Biacore T200 (cytiva: Former GE Healthcare). After the equilibration of Series S Sensor Chip CM5 (produced by cytiva: Former GE Healthcare) with Running Buffer (HBS-EP with 1% (v/v) DMSO), an EDC/NHS mixture was injected at a flow rate of 10 μL/min for 7 minutes to thereby activate the functional groups on sensor chip. Recombinant human GhR-Fc protein (R&D Systems) in 10 mM Acetate (pH4.0) was injected immobilized to at a flow rate of 5 μL/min. It took 7 minutes to immobilize the GhR on the substrate surfaces of the sensor chip. Then Ethanolamine was injected at a flow rate of 10 μL/min for 7 minutes. 1M Ethanolamine (aq.) was injected at a flow rate of 10 μL/min for 420 seconds for capping.
Using these Peptide Samples, kinetics of peptides against human GhR-Fc protein were measured. The method adopted for sample measurement was a single-cycle kinetics method. The analysis was conducted using the evaluation software provided with Biacore T200. A DMSO correction curve obtained by solvent correction measurements was applied for the analysis. Kinetics fitting was done on the difference data obtained by subtracting the baseline data from sample measurement data. KD values were calculated based on the association rate constant (ka) and dissociation rate constant (kd).
Furthermore, “obs. m/z [M+2H]2+” indicates the ESI-MS(+) observed value. Unless otherwise specified, this is bivalent ([M+2H]^2+).

Question: How did the pKd turn out when COc1ccc2[nH]cc(C[C@@H]3NC(=O)[C@H](CC(N)=O)NC(=O)[C@H](CO)NC(=O)[C@H](C(C)C)NC(=O)[C@H](C(C)C)NC(=O)[C@H](CCCCNC(=O)CC[C@H](NC(=O)CC[C@H](NC(=O)CCCc4ccc(I)cc4)C(=O)O)C(=O)O)N(C)C(=O)[C@H](Cc4ccc(O)cc4)NC(=O)CSC[C@@H](C(=O)NCC(=O)N4CCC[C@H]4C(=O)N[C@H](CO)C(=O)N[C@H](CO)C(=O)N[C@H](CO)C(N)=O)NC(=O)[C@H](C(C)C)NC(=O)C4(CCN(CC(=O)O)CC4)NC(=O)[C@H](Cc4c[nH]c5ccc(O)cc45)NC(=O)[C@H](CCCCN)NC(=O)[C@H](Cc4ccc(C(=O)O)cc4)NC3=O)c2c1 [Compound 52] ({CH2CO}-Y[NMeK]([γGlu-γGlu-Butanoyl(4-(4-I-phenyl))])VVSN[Trp(5-OMe)][Phe(4-COOH)]K[Trp(5-OH)][X7]VCGP[dS][dS][dS]-NH2; thioether N-13) was run?
Answer: The pKd was 8.26.

Question: With CC(C)[C@@H]1NC(=O)[C@H](C(C)C)NC(=O)[C@@H]2CCCCNC(=O)Cn3cc(c4ccccc43)C[C@H](NC(=O)[C@H](CC(N)=O)NC(=O)[C@H](CO)NC1=O)C(=O)N[C@@H](Cc1ccc(C(=O)O)cc1)C(=O)N[C@@H](CCCCN)C(=O)N[C@@H](Cc1c[nH]c3ccc(O)cc13)C(=O)NC(C)(C)C(=O)N[C@@H](C(C)C)C(=O)N[C@H](C(=O)NCCCC[C@H](NC(=O)COCCOCCNC(=O)COCCOCCNC(=O)CC[C@H](NC(=O)CC[C@H](NC(=O)CCCCCCCCCCCCC(=O)O)C(=O)O)C(=O)O)C(N)=O)CSCC(=O)N[C@@H](Cc1ccc(C(=O)O)cc1)C(=O)N2C [Compound 62] ({CH2CO}-[Phe(4-COOH)][NMeK]VVSN[Trp(1-CH2CO)][Phe(4-COOH)]K[Trp(5-OH)][Aib]VC-X13; lactam 2-7; thioether N-13) as the compound, how does the pKd read?
Answer: The pKd was 8.41.

Question: With CC(C)[C@@H]1NC(=O)[C@H](C(C)C)NC(=O)[C@@H]2CCCCNC(=O)Cn3cc(c4ccccc43)C[C@H](NC(=O)[C@H](CC(N)=O)NC(=O)[C@H](CO)NC1=O)C(=O)N[C@@H](Cc1ccc(C(=O)O)cc1)C(=O)N[C@@H](CCCCN)C(=O)N[C@@H](Cc1c[nH]c3ccc(O)cc13)C(=O)NC1(CCN(CC(=O)O)CC1)C(=O)N[C@@H](C(C)C)C(=O)N[C@H](C(=O)NCCCC[C@H](NC(=O)CC[C@H](NC(=O)CC[C@H](NC(=O)CCCc1ccc(I)cc1)C(=O)O)C(=O)O)C(N)=O)CSCC(=O)N[C@@H](Cc1ccc(C(=O)O)cc1)C(=O)N2C [Compound 8] ({CH2CO}-[Phe(4-COOH)][NMeK]VVSN[Trp(1-CH2CO)][Phe(4-COOH)]K[Trp(5-OH)][X7]VC-X10; lactam 2-7; thioether N-13) as the compound, how does the pKd read?
Answer: The pKd was 8.68.

Question: CC(C)[C@@H]1NC(=O)[C@H](C(C)C)NC(=O)[C@@H]2CCCCNC(=O)Cn3cc(c4ccccc43)C[C@H](NC(=O)[C@H](CC(N)=O)NC(=O)[C@H](CO)NC1=O)C(=O)N[C@@H](Cc1ccc(C(=O)O)cc1)C(=O)N[C@@H](CCCCN)C(=O)N[C@@H](Cc1c[nH]c3ccc(O)cc13)C(=O)NC(C)(C)C(=O)N[C@@H](C(C)C)C(=O)N[C@H](C(=O)NCCCC[C@H](NC(=O)CC[C@H](NC(=O)CC[C@H](NC(=O)CCCCCCCCCCCCCCC(=O)O)C(=O)O)C(=O)O)C(N)=O)CSCC(=O)N[C@@H](Cc1ccc(O)cc1)C(=O)N2C [Compound 24] ({CH2CO}-Y[NMeK]VVSN[Trp(1-CH2CO)][Phe(4-COOH)]K[Trp(5-OH)][Aib]VC-X3; lactam 2-7; thioether N-13) was tested. Which pKd did it give?
Answer: Its pKd is 8.59.

Question: How did the pKd turn out when CC(C)[C@@H]1NC(=O)[C@H](C(C)C)NC(=O)[C@H](CCCCNC(=O)CC[C@H](NC(=O)CCCc2ccc(I)cc2)C(=O)O)N(C)C(=O)[C@H](Cc2ccc(O)cc2)NC(=O)CSC[C@@H](C(N)=O)NC(=O)[C@H](C(C)C)NC(=O)C(C)(C)NC(=O)[C@H](Cc2c[nH]c3ccc(O)cc23)NC(=O)[C@H](CCCCN)NC(=O)[C@H](Cc2ccc(C(=O)O)cc2)NC(=O)[C@H](Cc2c[nH]c3ncccc23)NC(=O)[C@H](CC(N)=O)NC(=O)[C@H](CO)NC1=O [Compound 43] ({CH2CO}-Y[NMeK]([γGlu-Butanoyl(4-(4-I-phenyl))])VVSN[Trp(7-aza)][Phe(4-COOH)]K[Trp(5-OH)][Aib]VC-NH2; thioether N-13) was run?
Answer: The pKd was 8.40.
